According to patent US20180153870A1, “BIPERIDEN FOR TREATING CANCER” (Universitätsklinikum Hamburg-Eppendorf, priority 2015, published 2018):

Columns and labels:
[1] = target: T1, MALT1 (Homo sapiens, UniProt Q9UDY8); test: MALT1 activity in treated cells (immunoprecipitation, AC-LRSR-AMC cleavage); type: cell-based
T1 construct: endogenous in cells; host or cells: Panc-1, Panc-2, HPDE, Jurkat (PMA-stimulated and non-stimulated)
T1 sequence (Q9UDY8 1-824): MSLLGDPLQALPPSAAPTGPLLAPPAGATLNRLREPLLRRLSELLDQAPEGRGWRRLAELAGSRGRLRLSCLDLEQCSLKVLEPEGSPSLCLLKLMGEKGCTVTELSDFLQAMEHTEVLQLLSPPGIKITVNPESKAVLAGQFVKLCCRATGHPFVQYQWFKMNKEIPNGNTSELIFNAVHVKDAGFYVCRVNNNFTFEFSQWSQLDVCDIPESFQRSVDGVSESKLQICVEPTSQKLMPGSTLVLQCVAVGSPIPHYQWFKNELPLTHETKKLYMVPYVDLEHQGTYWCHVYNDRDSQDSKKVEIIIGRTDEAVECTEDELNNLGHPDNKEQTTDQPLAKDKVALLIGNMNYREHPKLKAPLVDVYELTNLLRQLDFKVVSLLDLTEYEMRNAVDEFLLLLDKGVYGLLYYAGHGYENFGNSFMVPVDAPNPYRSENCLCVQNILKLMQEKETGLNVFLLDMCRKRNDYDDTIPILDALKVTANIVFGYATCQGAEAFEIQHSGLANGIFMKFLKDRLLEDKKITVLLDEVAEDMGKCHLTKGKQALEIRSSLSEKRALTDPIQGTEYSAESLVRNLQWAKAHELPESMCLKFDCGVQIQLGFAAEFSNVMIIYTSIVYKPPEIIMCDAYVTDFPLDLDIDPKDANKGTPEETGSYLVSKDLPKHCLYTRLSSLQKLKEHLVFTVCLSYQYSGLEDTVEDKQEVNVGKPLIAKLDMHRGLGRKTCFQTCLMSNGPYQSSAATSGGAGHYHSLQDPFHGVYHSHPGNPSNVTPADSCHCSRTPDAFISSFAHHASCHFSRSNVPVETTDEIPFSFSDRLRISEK
Procedure: The MALT1 activity was measured in the pancreatic cancer cells Panc-1, Panc-2 and in the reference line HPDE as well as in the PMA-stimulated and non-stimulated Jurkat cells. In order to examine whether mepazine, biperiden or a combination of both active ingredients influence the MALT1 activity and pancreatic cancer cells, an assay was performed as described in Nagel et al.. For this purpose, the pancreatic cancer cell lines and the reference cell lines were treated with biperiden (29.6 μg/ml), mepazine (25 μM), a combination of both active ingredients (15 μM mepazine+3.71 μg/ml biperiden) or only with DMSO. The cells were subsequently lysed and precipitated with mouse anti-MALT1 antibody (SC-76677, Santa Cruz, Calif., USA) as previously described by Gungor et al.. As described in the protocol, the fluorogenic substrate AC-LRSR-AMC, which was derived from the C-terminal BCL 10 cleavage site, was used as a substrate for MALT1. The cleavage activity of MALT1 was subsequently determined as relative fluorescence units by a microtiter plate reader (FLUOstar, Omega, BMG Labtech).
The results were determined after 24 hours of incubation with mepazine, biperiden, or a combination of both active ingredients. It was shown that pancreatic cancer cell lines as well as non-malignant, immortalized HPDE cell lines had constitutive MALT1 activity, although to a different extent. As a reference, a non-stimulated Jurkat cell line and a Jurkat cell line that was activated with PMA were examined.

[2] = system: L3.6pl res; test: MTT proliferation assay, L3.6pl res (gemcitabine-resistant); type: cell-based, human
Procedure: The cell lines used for the proliferation assays were cultured in different media. The cell lines Pan-1, Panc-2 and BxPC3, which have been derived from the human ductal pancreatic adenocarcinoma (PDAC), were cultured in Dulbecco's modified Eagle medium (DMEM) (Sigma), that was supplemented with 1% penicillin/streptomycin (Life technologies/GIBCO 15140-122) and 10% fetal bovine serum (Life technologies/GIBCO 100500-064). The cell line L3.6pl was cultured in RPMI 1640 medium (Life technologies/GIBCO 72400-21) that was supplemented with 1% penicillin/streptomycin and 10% fetal bovine serum. A sub-clone of the cell line L3.6pl, that was designated L3.6pl res, was resistant to gemcitabine and was also cultured in RPMI 1640 medium (Life technologies/GIBCO 72400-21) that was supplemented with 1% penicillin/streptomycin, 10% fetal bovine serum and 2 μM gemcitabine (GEMZAR, Lily). The human immortalized, non-malignant cell line of the ductal pancreatic epithelium (HPDE) was cultured in keratinocyte-SFM (Life technologies/GIBCO) that was supplemented with 10% fetal bovine serum, 1% penicillin/streptomycin and 1% epidermal growth factor (EGF).
The proliferation rates of the cell lines were determined after stimulation with (i) biperiden, (ii) mepazine, and (iii) stimulation with both active ingredients. For this purpose, cells were seeded in plates with 96 wells at 5000 cells per well and incubated overnight at 37° C. and 5% CO2. Next morning, the blanket values were measured at 490 nm in an ELISA reader (FLUOstar Omega, BMG LABTECH) after the addition of 100 μL medium and 20 μL MTT substrate (CellTiter 96 AQueous One Solution Cell Proliferation Assay, Promega). Biperiden was added in increasing concentrations (3.71 μg/ml, 11.1 μg/ml und 29.6 μg/ml) in the form of solutions of biperiden hydrochloride (B5311 SIGMA-Aldrich, USA) and DMSO. […] The ex-tinction was measured every 24 hours during a period of 72 hours.
The normal distribution of the results was analyzed by Kolgomorov-Smirnov test and Shapiro-Wilk test. Non-parametric variables were analyzed using the Mann-Whitney-U test. […]

| MALT1 activity ([1]; HPDE, 25 μM mepazine, 24 hours of incubation) | MALT1 activity ([1]; Panc-1, 25 μM mepazine, immediately after addition of the MALT1 substrate and 10, 30, 60 and 90 minutes thereafter, statistically significant) | Compound | MALT1 activity ([1]; HPDE, 29.7 μg/ml biperiden, 10, 30 and 60 minutes after incubation with the MALT1 substrate, significantly (p=0.002; p=0.005; p=0.012)) | MALT1 activity ([1]; Panc-1, 29.7 μg/ml biperiden) | MALT1 activity ([1]; Panc-2, 29.7 μM biperiden, immediately and 10 minutes after addition of the MALT1 substrate, statistically significant (p=0.011; p=0.031)) | reduction of proliferation rate ([2]; 29.6 μg/ml biperiden, p=0.022) | MALT1 activity ([1]; Panc-2, 25 μM mepazine) | reduction of proliferation rate ([2]; 15 μM mepazine, p=0.031) | proliferation ([2]; 25 μM mepazine, p=0.002) |
| --- | --- | --- | --- | --- | --- | --- | --- | --- | --- |
| – | – | OC(CCN1CCCCC1)(c1ccccc1)C1CC2C=CC1C2 (stereo not drawn) [biperiden] | reduced the MALT1 activity | visibly reduced the MALT1 activity; however, this effect was not statistically significant | the MALT1 activity was reduced | 71.6% | – | – | – |
| did not influence the MALT1 activity | the MALT1 activity was reduced | CN1CCCC(CN2c3ccccc3Sc3ccccc32)C1 (stereo not drawn) [mepazine] | – | – | – | – | reduced the MALT1 activity, whereas this reduction however was not statistically significant | 69.4% | completely stopped |
